{
  "source": "patent US20230023092A1",
  "about": "“TREATMENT OF DEPRESSION AND OTHER VARIOUS DISORDERS WITH PSILOCYBIN” (COMPASS […], priority 2019, published 2023)",
  "key": {"[1]": {"test": "Solubility and hygroscopicity of psilocybin (Polymorph A or A′)", "type": "physicochemical", "settings": "in Water; form Polymorph A or A′", "text": "In some embodiments, the psilocybin of the disclosure in the form Polymorph A or A′ has the general properties illustrated in Table D."}, "healthy subjects": {"system": "healthy subjects", "test": "Positive and Negative Affect Schedule (PANAS)", "type": "in vivo, human", "settings": "for PANAS-Negative, change from baseline, Mean / PANAS-Positive, change from baseline, Mean: Post-Treatment Day 0, LS mean; for PANAS-Negative, change from baseline, Mean difference / PANAS-Positive, change from baseline, Mean difference: Post-Treatment Day 0", "text": "In some embodiments, the Positive and Negative Affect Schedule (PANAS) is used to evaluate the safety and/or efficacy of psilocybin. The PANAS measures the acute emotional drug effects and comprises 2 mood scales that measure positive and negative affect. Positive affect refers to the propensity to experience positive emotions and interact with others positively. Negative affect involves experiencing the world in a more negative way. Subjects respond to 10 questions associated with negative affect and 10 questions associated with positive affect. The questions are scaled using a 5-point scale that ranges from “slightly or not at all (1)” to “extremely (5)”. A total higher score on the positive affect questions indicates more of a positive effect while a lower score on the negative affect questions indicates less of a negative affect. In some embodiments, after treating according to the methods of the disclosure, a subject experiences a decrease in negative affect score of the PANAS, between about 5% and about 100%, for example about 5%, about 10%, about 15%, about 20%, about 25%, about 30%, about 35%, about 40%, about 45%, about 50%, about 55%, about 60%, about 65%, about 70%, about 75%, about 80%, about 85%, about 90%, about 95%, or about 100%, compared to prior to treatment. In some embodiments, after treating according to the methods of the disclosure, a subject experiences an increase in positive affect score of the PANAS, between about 5% and about 100%, for example about 5%, about 10%, about 15%, about 20%, about 25%, about 30%, about 35%, about 40%, about 45%, about 50%, about 55%, about 60%, about 65%, about 70%, about 75%, about 80%, about 85%, about 90%, about 95%, or about 100%, about 110%, about 120%, about 130%, about 140%, about 150%, about 160%, about 170%, about 180%, about 190%, about 200%, about 210%, about 220%, about 230%, about 240%, about 250%, about 260%, about 270%, about 280%, about 290%, or about 300%, or more, compared to prior to treatment.\nThe Positive and Negative Affects Schedule (PANAS) score was also evaluated to measure the effect of psilocybin."}},
  "data": [
    {"smiles": "CN(C)CCc1c[nH]c2cccc(OP(=O)(O)O)c12", "note": "[Psilocybin, psilocybin]", "values": [
      {"measurement": "solubility", "setting": "[1]", "result": "~15", "unit": "mg/mL"},
      {"measurement": "PANAS negative affect, mean increase from baseline", "setting": "healthy subjects; 25 mg, Day 0 after treatment", "result": 1.3},
      {"measurement": "PANAS-Negative, change from baseline, Mean", "setting": "healthy subjects; Psilocybin 10 mg", "result": "−0.6"},
      {"measurement": "PANAS-Positive, change from baseline, Mean", "setting": "healthy subjects; Psilocybin 10 mg", "result": 0.7},
      {"measurement": "PANAS-Negative, change from baseline, Mean difference", "setting": "healthy subjects; Psilocybin 10 mg-Placebo", "result": "−0.5"},
      {"measurement": "PANAS-Positive, change from baseline, Mean difference", "setting": "healthy subjects; Psilocybin 10 mg-Placebo", "result": 5.7},
      {"measurement": "PANAS-Negative, change from baseline, Mean", "setting": "healthy subjects; Psilocybin 25 mg", "result": 1.3},
      {"measurement": "PANAS-Positive, change from baseline, Mean", "setting": "healthy subjects; Psilocybin 25 mg", "result": "−0.4"},
      {"measurement": "PANAS-Negative, change from baseline, Mean difference", "setting": "healthy subjects; Psilocybin 25 mg-10 mg", "result": 1.9},
      {"measurement": "PANAS-Positive, change from baseline, Mean difference", "setting": "healthy subjects; Psilocybin 25 mg-10 mg", "result": "−1.0"},
      {"measurement": "PANAS-Negative, change from baseline, Mean difference", "setting": "healthy subjects; Psilocybin 25 mg-Placebo", "result": 1.4},
      {"measurement": "PANAS-Positive, change from baseline, Mean difference", "setting": "healthy subjects; Psilocybin 25 mg-Placebo", "result": 4.6}
    ]}
  ]
}
